Data published in US9827189B2, “Stable parenteral DNJ compositions” (AMICUS THERAPEUTICS, INC., priority 2013, dated 2017).

Assays:
[1] = system: cynomolgus monkey whole blood; test: Hemolytic potential in cynomolgus monkey whole blood; assay type: cell-based; conditions: 37 ° C. 30 minutes
Description: (§1) 1-DNJ-HCl was dissolved in sodium citrate buffer. 1-DNJ-HCl concentration was 30 mg/mL (resulting free 1-DNJ concentration was 25 mg/mL); sodium citrate buffer concentration was 50 mM at pH 5.0. 1-DNJ-HCl formulation was added to whole blood samples of male human, rat, and cynomolgus monkey. […]. Buffer served as a negative control, while Triton-X 100 (Lysing agent) served as a positive control. Additionally blood sample without any additions was used as a negative control. The samples were stored at 4° C. Blood samples were incubated at 37 ° C. for 30 minutes with the 1-DNJ-HCl formulation, after which the samples were centrifuged. The amount of hemoglobin in the supernatant from each centrifuged sample was measured using a commercially available hemoglobin assay kit (BioAssay Systems, QuantiChrom™ Hemoglobin Assay Kit) and the Tecan microplate reader.

human whole blood = test: Hemolytic potential in human whole blood; assay type: cell-based; conditions: 37 ° C. 30 minutes
Description: as §1

rat whole blood = test: Hemolytic potential in rat whole blood; assay type: cell-based, Sprague Dawley rat; conditions: 37 ° C. 30 minutes
Description: as §1

[2] = Stability and integrity of 1-DNJ-HCl in buffer solutions at 60° C. by NP-HPLC (UV and CAD) and discoloration; assay type: physicochemical; conditions: 1-DNJ/buffer formulations with a pH in the range of about 6.0-7.5
Description: 1-DNJ-HCl was dissolved in sodium phosphate buffer. 1-DNJ-HCl concentration was 60 mg/mL; sodium phosphate buffer concentration was 100 mM at pH 4.89. The formulation was stored at 60° C. for 4 days. 1-DNJ-HCl solution in water was used as a control. Reaction rate for small molecules such as 1-DNJ-HCl generally follows Arrhenius equation where reaction rate nearly doubles for every 10° C. increase in the temperature. Thus, under this model, the reaction rate at 60° C. would be 2^5 or 32 times the reaction rate at 10° C. Therefore during 4 days at 60° C. 1-DNJ-HCl would degrade by approximately the same percentage as during 128 days (4*32) at 10° C. The stability of 1-DNJ-HCl was measured by normal phase high performance liquid chromatography (NP-HPLC). 1-DNJ-HCl was recorded by UV chromatograms and by Charged Aerosol Detector (CAD) chromatograms. Mobile phase consisted of ACN/30 mM Ammonium Acetate (90/10, v/v). The flow rate was 1.0 ml/min with 5 μl injection at 400° C. UV absorbance was measured at 220 nm CAD detector settings were 35.0 psi, Gain: 100 pA. 1-DNJ-HCl was dissolved in sodium acetate buffer. The 1-DNJ-HCl concentration was 60 mg/mL; sodium acetate buffer concentration was 50 mM at pH 5.5. The formulation was stored at 60° C. for 4 days. 1-DNJ-HCl solution in water was used as control. Reaction rate for small molecules such as 1-DNJ-HCl generally follows the Arrhenius equation, in which the reaction rate nearly doubles for every 10°K increase in the temperature. Thus the reaction rate, under this model, at 60° C. would be 2^5 or 32 times the reaction rate at 10° C. Therefore during 4 days at 60° C. 1-DNJ-HCl would degrade by approximately same percentage as during 128 days at 10° C. The stability of 1-DNJ-HCl was measured by NP-HPLC. Presence of 1-DNJ-HCl was recorded by UV absorbance detector and by Charged Aerosol Detector. Mobile phase consisted of ACN/30 mM Ammonium Acetate (90/10, v/v). The flow rate was 1.0 ml/min with 5 μl injection at 400 C. UV absorbance was measured at 220 nm. CAD detector settings were 35.0 psi, Gain: 100 pA. 1-DNJ-HCl was dissolved in sodium citrate buffer that further includes EDTA. 1-DNJ-HCl concentration was 60 mg/mL; sodium citrate buffer concentration was 50 mM at pH 4.6. The EDTA concentration was 0.05% w/v. Some samples were stored under the nitrogen atmosphere (essentially 100% nitrogen) while others were stored under air. The formulation was stored at 60° C. for 8 days. Stability of 1-DNJ-HCl was measured by NP-HPLC. Presence of 1-DNJ-HCl was recorded by UV absorbance detector and by Charged Aerosol Detector. Mobile phase consisted of ACN/30 mM Ammonium Acetate (90/10, v/v). The flow rate was 1.0 ml/min with 5 μl injection at 400 C. UV absorbance was measured at 220 nm. CAD detector settings were 35.0 psi, Gain: 100 pA. 1-DNJ-HCl was dissolved in sodium citrate buffer. 1-DNJ-HCl concentration was 60 mg/mL; sodium citrate buffer concentration was 50 mM at pH 4.7. The formulation was stored at 60° C. for 8 days. 1-DNJ-HCl solution in water was used as control. Stability of 1-DNJ-HCl was measured by NP-HPLC. Presence of 1-DNJ-HCl was recorded by UV absorbance detector and by Charged Aerosol Detector. Mobile phase consisted of ACN/30 mM Ammonium Acetate (90/10, v/v). The flow rate was 1.0 ml/min with 5 μl injection at 400 C. UV absorbance was measured at 220 nm. CAD detector settings were 35.0 psi, Gain: 100 pA. 1-DNJ-HCl was dissolved in sodium citrate buffer. 1-DNJ-HCl concentration was 60 mg/mL; sodium citrate buffer concentration was 50 mM at pH 5.0. The formulation was stored at 60° C. for 17 days. The samples were stored under the nitrogen atmosphere (essentially 100% nitrogen). 1-DNJ-HCl solution in water was used as control. Reaction rate for small molecules such as 1-DNJ-HCl generally follows Arrhenius equation where reaction rate nearly doubles for every 10°K increase in the temperature. Thus reaction rate at 60° C. would be 2^5 or 32 times the reaction rate at 10° C. Therefore during 17 days at 60° C. […]

[3] = 500 μL blood mixed with 500 μL sample (30 mg/mL AT2220 or 0.1% Triton X-100)
[4] = 500 μL blood mixed with 500 μL sample, 30 mg/mL AT2220 dilution 1, 0.1% Triton X-100 dilution 100
[5] = supernatant, 500 μL blood mixed with 500 μL sample (30 mg/mL AT2220 or 0.1% Triton X-100)

Compound | % RBC lysis [1, 3] | Avg OD (n = 4) [1, 4] | Hemoglobin [1, 5] | % RBC lysis (human whole blood; [3]) | Avg OD (n = 4) (human whole blood; [4]) | Hemoglobin (human whole blood; [5]) | % RBC lysis (rat whole blood; [3]) | Avg OD (n = 4) (rat whole blood; [4]) | Hemoglobin (rat whole blood; [5]) | Discoloration [2]
Triton X-100 | 100.0% | 0.2000 | 4984 mg/dL | 100.0% | 0.2768 | 6899 mg/dL | 100.0% | 0.2567 | 6398 mg/dL | 
OC[C@H]1NC[C@H](O)[C@@H](O)[C@@H]1O [1-DNJ, 1-deoxynojirimycin] |  |  |  |  |  |  |  |  |  | discoloration may occur
